Read-outs that look alike come from different tables or passages of the source. One block for each compound: values may come before it.
Assays:
[1] = test system: MV411; assay: CCK-8 viability assay, MV411 cells; format: cell-based
Description: (§1) Cell viability was assessed using the Cell Counting Kit-8 (CCK-8) assay. […] After 72 h of incubation, 10 μL of CCK-8 reagent was added to each well, and the plates were further incubated for 2–4 h. Absorbance was measured at 450 nm using a microplate reader. Dose-response curves were generated and analyzed using GraphPad Prism 8 (version 8.4.3.686).

[2] = test system: K562 cells; assay: Apoptosis assay (Annexin V/PI flow cytometry); details: 10m 10 μM, asciminib 5 μM, 48 or 72 h
Description: Cell apoptosis was evaluated through Annexin V and propidium iodide (PI) dual staining using an Annexin V-FITC Apoptosis Detection Kit (Vazyme, #A211-02, Nanjing, China) following the manufacturer’s protocol.

[3] = test system: parental Ba/F3 cells; assay: CCK-8 viability assay, parental Ba/F3 cells; format: cell-based; details: mean ± SD; for GI50: CCK8 kit; for IC50: Table 3
Description: as §1

[4] = test system: HL60; assay: CCK-8 viability assay, HL60 cells; format: cell-based
Description: as §1

[5] = test system: Ba/F3 (BCR-ABL1) cells; assay: CCK-8 viability assay, Ba/F3 (BCR-ABL1) cells; format: cell-based; details: for GI50: Mus musculus, BaF3, CCK8 kit; for GI50 / Ba/F3 (BCR-ABL1) Inhibition (%) / IC50: mean ± SD; for Ba/F3 (BCR-ABL1) Inhibition (%): measured at 10 μM; for IC50: Table 3
Description: as §1

[6] = test system: K562 cells; assay: Synergy study with asciminib (CCK-8, SynergyFinder 3.0, ZIP model); format: cell-based
Description: The drug combination effects were quantified as percentage inhibition of cell viability. The experimental data were analyzed using SynergyFinder 3.0, with a four-parameter logistic regression (LL4) model selected for curve fitting and data analysis. The Synergy Score based on the ZIP (Zero Interaction Potency) model is used to evaluate the synergistic effects of drug combinations.

[7] = test system: BCR-ABL-dependent signaling (p-ABL1, p-STAT5, p-CRKL) in K562 cells; assay: Western blot of BCR-ABL-dependent signaling; format: cell-based; details: 3.3 and 10 μM, 1 h
Description: Western blot analysis was conducted following established protocols. K562 cells were treated with varying concentrations of the test compound for 60 min, followed by protein extraction using RIPA buffer. Protein quantification was performed using bicinchoninic acid assay, and 30–60 μg of protein samples were resolved by 10% sodium dodecyl sulfate-polyacrylamide gel electrophoresis before being transferred onto nitrocellulose membranes. Membranes were probed with primary antibodies overnight at 4 °C. Following incubation with horseradish peroxidase (HRP)-conjugated secondary antibodies (Thermo Scientific, Waltham, MA, USA), protein bands were detected using a chemiluminescent HRP substrate (Millipore Corporation, #WBKLS0500, Billerica, MA, USA) and imaged with a Syngene GeneGnome-XRQ-NPC imager (Synoptics, Britain). Quantitative analysis was performed by measuring band intensity using ImageJ (version 1.43) software. The following primary antibodies were used: c-Abl (ABclonal, #A0282, Woburn, MA, USA), phosphor-c-Abl (ABclonal, #AP0001), STAT5 (ABclonal, #A5029), phosphor-STAT5 (ABclonal, #AP0887), CRKL (ABclonal, #A11735), and phospho-CRKL (ABclonal, #AP0824).

[8] = test system: Ba/F3 (BCR-ABL^T315I) cells; assay: CCK-8 viability assay, Ba/F3 (BCR-ABL^T315I) cells; format: cell-based; details: Table 3; mean ± SD
Description: as §1

[9] = test system: K562 cells; assay: CCK-8 viability assay, K562 cells; format: cell-based; details: 72 h; read-out: GI50 (IC50) K562 cells
Description: Cell viability was assessed using the Cell Counting Kit-8 (CCK-8) assay. Cells were seeded in 96-well plates at a density of 10,000 cells per well in RPMI 1640 medium. Test compounds were prepared by serially diluting stock solutions 3-fold in DMSO to generate an eight-point concentration gradient (100 μM to 0.045 μM), followed by addition to the cultured cells. After 72 h of incubation, 10 μL of CCK-8 reagent was added to each well, and the plates were further incubated for 2–4 h. Absorbance was measured at 450 nm using a microplate reader. Dose-response curves were generated and analyzed using GraphPad Prism 8 (version 8.4.3.686).

[10] = Table 3, mean ± SD, read-out: IC50 MV411
[11] = Table 3, mean ± SD, read-out: IC50 HL60

Compound: O=C(Nc1ccc(OC(F)(F)Cl)cc1)c1cnc(N2CC[C@@H](O)C2)c(-c2cc[nH]n2)c1 [Asciminib, reference compound]
IC50 ([1]; Homo sapiens, MV4-11, read-out: IC50 MV411): > 100 µM | apoptosis induction (in words) [2]: significantly induced apoptosis | GI50 ([3]; Mus musculus, BaF3): > 100 µM | IC50 ([3]; Mus musculus, BaF3): > 100 µM | IC50 ([4]; Homo sapiens, HL-60, read-out: IC50 HL60): > 100 µM

GI50 [5]: 6.4 ± 1.6 µM
Compound: CCC(=O)Nc1nc2ccc(NC(=O)COc3ccc(Cl)cc3)cc2s1 [Compound A8]
inhibition of Ba/F3 (BCR-ABL1) cells (in words) ([5]; 10 μM): showed inhibition potency | GI50 ([3]; Mus musculus, BaF3): > 100 µM

GI50 [5]: 10.7 ± 2.6 µM
Compound: CCC(=O)Nc1nc2ccc(NC(=O)COc3ccccc3)cc2s1 [Compound A12]
GI50 ([3]; Mus musculus, BaF3): > 100 µM

GI50 [5]: 19.5 ± 4.7 µM
Compound: O=C(COc1ccccc1)Nc1ccc2nc(NC(=O)c3ccccc3)sc2c1 [Compound A13]
GI50 ([3]; Mus musculus, BaF3): > 100 µM

GI50 [5]: 1.2 ± 0.2 µM
Compound: CS(=O)(=O)Nc1nc2ccc(NC(=O)COc3ccccc3)cc2s1 [Compound A14]
GI50 ([3]; Mus musculus, BaF3): 37.6 ± 5.7 µM

GI50 [5]: 3.9 ± 0.5 µM
Compound: Cc1ccc(S(=O)(=O)Nc2nc3ccc(NC(=O)COc4ccccc4)cc3s2)cc1 [Compound A15]
GI50 ([3]; Mus musculus, BaF3): 42.9 ± 10.4 µM

Compound: Cc1ccc(NC(=O)c2ccc(CN3CCN(C)CC3)cc2)cc1Nc1nccc(-c2cccnc2)n1 [Imatinib, imatinib, reference compound]
effect in combination with asciminib (in words) [6]: antagonistic effect

Compound: N-(2-Acetamidobenzo[d]thiazol-6-yl)-2-(2-chlorophenoxy)acetamide [Compound 10j]
Ba/F3 (BCR-ABL1) Inhibition (%) [5]: 68 ± 2%

Compound: N-(2-Acetamidobenzo[d]thiazol-6-yl)-2-(2-fluorophenoxy)acetamide [Compound 10g]
Ba/F3 (BCR-ABL1) Inhibition (%) [5]: 65 ± 3%

IC50 [1, 10]: > 100 µM | IC50 [5]: 0.63 ± 0.1 µM | IC50 [8]: 25.2 ± 1.1 µM | IC50 [4, 11]: 54.2 ± 5.5 µM | IC50 [9]: 0.98 µM
Compound: N-(2-Acetamidobenzo[d]thiazol-6-yl)-2-(3,4-dichlorophenoxy)acetamide [Compound 10m]
effect in combination with asciminib (in words) [6]: powerful synergistic activity | Ba/F3 (BCR-ABL1) Inhibition (%) [5]: 93 ± 5% | apoptosis induction (in words) [2]: significantly induced apoptosis | IC50 [3]: > 100 µM | inhibition of BCR-ABL-dependent signaling pathway (in words) [7]: potently inhibited

Compound: N-(2-Acetamidobenzo[d]thiazol-6-yl)-2-(3-chlorophenoxy)acetamide [Compound 10k]
Ba/F3 (BCR-ABL1) Inhibition (%) [5]: 60 ± 6%

Compound: N-(2-Acetamidobenzo[d]thiazol-6-yl)-2-(3-fluorophenoxy)acetamide [Compound 10h]
Ba/F3 (BCR-ABL1) Inhibition (%) [5]: 61 ± 5%

Compound: N-(2-Acetamidobenzo[d]thiazol-6-yl)-2-(4-chlorophenoxy)acetamide [Compound 10l]
Ba/F3 (BCR-ABL1) Inhibition (%) [5]: 71 ± 4%

Compound: N-(2-Acetamidobenzo[d]thiazol-6-yl)-2-(4-fluorophenoxy)acetamide [Compound 10i]
Ba/F3 (BCR-ABL1) Inhibition (%) [5]: 58 ± 2%

Compound: N-(2-Acetamidobenzo[d]thiazol-6-yl)-2-(m-tolyloxy)acetamide [Compound 10t]
Ba/F3 (BCR-ABL1) Inhibition (%) [5]: 28 ± 5%

IC50 [1, 10]: > 100 µM | IC50 [5]: 2.2 ± 0.5 µM | IC50 [8]: > 100 µM | IC50 [4, 11]: > 100 µM | IC50 [9]: 2.7 µM
Compound: N-(2-Acetamidobenzo[d]thiazol-6-yl)-2-(naphthalen-2-yloxy)acetamide [Compound 10f]
Ba/F3 (BCR-ABL1) Inhibition (%) [5]: 88 ± 2% | IC50 [3]: > 100 µM

Compound: N-(2-Acetamidobenzo[d]thiazol-6-yl)-2-(o-tolyloxy)acetamide [Compound 10s]
Ba/F3 (BCR-ABL1) Inhibition (%) [5]: 22 ± 2%

Compound: N-(2-Acetamidobenzo[d]thiazol-6-yl)-2-phenoxyacetamide [Compound 10a]
Ba/F3 (BCR-ABL1) Inhibition (%) [5]: 52 ± 5%
